# Reference: ChEMBL document CHEMBL5244253, “Recent research progress on natural small molecule bibenzyls and its derivatives in Dendrobium species” (Eur J Med Chem, 2020)
# Tests used:
# [1] = Antioxidant activity assessed as DPPH radical scavenging activity incubated for 30 mins by spectrophotometric analysis; assay type: functional
# PC-12 [2] = experiment: Neuroprotection against Amyloid beta (25 to 35)-induced toxicity in rat PC-12 cells assessed as increase in cell viability at 50 uM for 24 hrs by MTT assay relative to control; assay type: functional
# PC-12 [3] = experiment: Neuroprotection against Amyloid beta (25 to 35)-induced toxicity in rat PC-12 cells assessed as increase in cell viability at 25 uM for 24 hrs by MTT assay relative to control; assay type: functional
# PC-12 [4] = experiment: Neuroprotection against Amyloid beta (25 to 35)-induced toxicity in rat PC-12 cells assessed as increase in cell viability at 10 uM for 24 hrs by MTT assay relative to control; assay type: functional
# [5] = Permeability of the compound by PAMPA-BBB assay; assay type: ADME; details: read-out: permeability
# PC-12 [6] = experiment: Neurotrophic activity in rat PC-12 cells assessed as induction of NGF-mediated neurite outgrowth at 10 uM measured after 72 hrs relative to control; assay type: functional
# [7] = molecular target: Aldo-keto reductase family 1 member B1 (Homo sapiens, UniProt P15121); experiment: Inhibition of aldose reductase (unknown origin) using DL-glyceraldehyde as substrate
# MDA-MB-231 = experiment: Cytotoxicity against human MDA-MB-231 cells assessed as cell viability incubated for 72 hrs by MTT assay; assay type: functional, cell-based; details: MDA-MB-231, 72 h
# HepG2 = experiment: Cytotoxicity against human HepG2 cells assessed as cell viability incubated for 72 hrs by MTT assay; assay type: functional, cell-based; details: HepG2, 72 h
# HT-29 = experiment: Cytotoxicity against human HT-29 cells assessed as cell viability incubated for 72 hrs by MTT assay; assay type: functional, cell-based; details: HT-29, 72 h
# [8] = molecular target: Nitric oxide synthase, inducible (Homo sapiens, UniProt P35228); experiment: Inhibition of iNOS (unknown origin)
# [9] = Antioxidant activity assessed as DPPH radical scavenging activity at 100 ug/ml incubated for 30 mins by spectrophotometric analysis; assay type: functional; details: dose 100.0 µg/ml
# RAW264.7 = experiment: Antiinflammatory activity in mouse RAW264.7 cells assessed as inhibition of LPS-induced NO production at 25 uM measured after 24 hrs; assay type: functional
# NCI-H23 = experiment: Anti-cancer activity against human NCI-H23 cells; assay type: functional, cell-based
# HL-60 = experiment: Anti-cancer activity against human HL-60 cells; assay type: functional, cell-based
# SGC-7901 = experiment: Anti-cancer activity against human SGC-7901 cells; assay type: functional, cell-based
# K562 = experiment: Anti-cancer activity against human K562 cells; assay type: functional, cell-based
# Bel-7402 = experiment: Anti-cancer activity against human Bel-7402 cells; assay type: functional, cell-based
# NCI-H292 = experiment: Anti-cancer activity against human NCI-H292 cells; assay type: functional, cell-based
# THP-1 = experiment: Anti-cancer activity against human THP-1 cells; assay type: functional, cell-based
# [10] = molecular target: Tyrosine-protein phosphatase non-receptor type 1 (Homo sapiens, UniProt P18031); experiment: Inhibition of PTP1B (unknown origin)
# Tyrosine-protein phosphatase non-receptor type 1, sequence (P18031 whole entry): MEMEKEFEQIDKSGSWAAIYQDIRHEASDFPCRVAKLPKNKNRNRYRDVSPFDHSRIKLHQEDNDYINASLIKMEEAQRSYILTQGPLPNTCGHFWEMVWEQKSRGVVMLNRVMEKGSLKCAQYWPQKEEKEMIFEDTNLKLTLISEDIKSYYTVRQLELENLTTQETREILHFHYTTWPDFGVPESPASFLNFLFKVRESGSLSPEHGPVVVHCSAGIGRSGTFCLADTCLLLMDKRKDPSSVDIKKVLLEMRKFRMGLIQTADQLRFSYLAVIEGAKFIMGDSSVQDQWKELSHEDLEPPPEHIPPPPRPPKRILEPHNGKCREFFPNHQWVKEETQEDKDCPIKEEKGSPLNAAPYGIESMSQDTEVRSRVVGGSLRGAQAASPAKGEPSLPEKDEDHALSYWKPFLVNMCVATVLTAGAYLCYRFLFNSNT
# Nitric oxide synthase, inducible, sequence (P35228 whole entry): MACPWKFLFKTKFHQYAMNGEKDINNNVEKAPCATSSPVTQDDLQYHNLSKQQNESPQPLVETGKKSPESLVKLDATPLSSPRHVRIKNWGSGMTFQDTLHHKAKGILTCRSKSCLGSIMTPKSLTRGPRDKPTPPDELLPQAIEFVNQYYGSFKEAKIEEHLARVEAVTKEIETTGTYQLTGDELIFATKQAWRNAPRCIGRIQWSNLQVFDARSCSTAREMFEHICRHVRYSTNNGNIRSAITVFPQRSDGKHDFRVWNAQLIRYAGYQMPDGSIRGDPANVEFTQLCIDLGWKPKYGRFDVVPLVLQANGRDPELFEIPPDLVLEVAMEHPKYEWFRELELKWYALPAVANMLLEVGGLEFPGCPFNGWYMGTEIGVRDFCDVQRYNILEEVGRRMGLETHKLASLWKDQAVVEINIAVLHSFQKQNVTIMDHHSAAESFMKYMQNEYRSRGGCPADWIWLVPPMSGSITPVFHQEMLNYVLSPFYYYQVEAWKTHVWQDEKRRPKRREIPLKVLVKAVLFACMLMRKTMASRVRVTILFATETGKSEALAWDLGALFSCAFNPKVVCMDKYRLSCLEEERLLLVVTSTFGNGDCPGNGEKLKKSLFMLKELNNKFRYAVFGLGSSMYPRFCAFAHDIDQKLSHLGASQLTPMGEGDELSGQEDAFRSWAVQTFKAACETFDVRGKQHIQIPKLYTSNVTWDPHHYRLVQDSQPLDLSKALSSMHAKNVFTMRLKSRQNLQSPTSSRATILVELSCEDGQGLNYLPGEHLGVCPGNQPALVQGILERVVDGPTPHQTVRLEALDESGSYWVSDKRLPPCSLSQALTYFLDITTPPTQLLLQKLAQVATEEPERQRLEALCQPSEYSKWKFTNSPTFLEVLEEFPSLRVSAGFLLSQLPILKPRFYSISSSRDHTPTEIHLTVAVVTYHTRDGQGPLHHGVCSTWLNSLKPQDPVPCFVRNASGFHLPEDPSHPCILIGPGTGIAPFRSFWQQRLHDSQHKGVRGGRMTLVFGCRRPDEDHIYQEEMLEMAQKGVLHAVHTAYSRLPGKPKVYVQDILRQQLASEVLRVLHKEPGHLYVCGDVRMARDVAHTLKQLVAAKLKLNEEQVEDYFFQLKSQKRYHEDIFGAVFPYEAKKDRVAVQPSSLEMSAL
Structure (SMILES),Activity (PC-12 [2]) [%],Activity (PC-12 [3]) [%],Activity (PC-12 [4]) [%],further results
COc1cc(CCc2ccc(O)c(O)c2)cc(O)c1O,,,,IC50 [1]: 15.6 µM
CCO[C@@H](Cc1ccc(O)cc1)c1cc(O)c(O)c(OC)c1,,,,IC50 [1]: 34.5 µM
COc1ccc(CCc2cc(OC)c(OC(=O)c3ccccc3)c(OC)c2)cc1OC,100.78,80.12,58.18,Papp [5]: 6.9 ×10⁻⁶ cm/s
COc1ccc(CCc2cc(OC)c(OCc3ccccc3)c(OC)c2)cc1OC,71,60.89,58.22,Papp [5]: 8.2 ×10⁻⁶ cm/s
COc1ccc(CCc2cc(OC)c(OC(=O)c3ccc(Cl)cc3)c(OC)c2)cc1OC,95.62,69.24,56.41,Papp [5]: 6.2 ×10⁻⁶ cm/s
COc1cc([C@@H]2Oc3cc(CCc4ccc(O)cc4)cc(OC)c3O[C@H]2CO)cc(OC)c1O,,,,Activity (PC-12 [6]): 9.46%
COc1ccc(CCc2cc(OC)c(OCCC(C)C)c(OC)c2)cc1OC,49.48,50.16,50.21,
COc1ccc(CCc2cc(OC)c(OC3CCCC3)c(OC)c2)cc1OC,72.64,61.02,54.77,Papp [5]: 7.6 ×10⁻⁶ cm/s
COc1ccc(CCc2cc(OC)c(OC(=O)c3ccncc3)c(OC)c2)cc1OC,46.56,50.71,53.53,
COc1cc(CCc2ccc(O)c(O)c2)cc(OC)c1,,,,IC50 [7]: 39.2 µM
CCC(C)Oc1c(OC)cc(CCc2ccc(OC)c(OC)c2)cc1OC (centres undefined),48.75,49.73,49.02,
COc1ccc(CC2c3cc(O)c(O)c(OC)c3Oc3cc(O)c4c(c32)CCc2cc(O)ccc2-4)cc1 (centres undefined),,,,IC50 (MDA-MB-231): 25.2 µM; IC50 (HepG2): 51.3 µM; IC50 (HT-29): 30.4 µM
CCCCOc1c(OC)cc(CCc2ccc(OC)c(OC)c2)cc1OC,53.44,52.03,51.79,
O=C1O[C@H]([C@@H](O)CO)C(O)=C1O [ASCORBIC ACID],,,,IC50 [1]: 23.2 µM
COc1cc(CCc2cc(OC)c3c(c2)O[C@@H](c2cc(OC)c(O)c(OC)c2)[C@H](CO)O3)ccc1O,,,,Activity (PC-12 [6]): 7.86%
COc1ccc(CCc2cc(OC)c(OCC(C)C)c(OC)c2)cc1OC,49.89,50.12,54.53,
COc1ccc(CCc2cc(OC)c3c(c2)O[C@H](c2cc(O)c(O)c(OC)c2)[C@@H](c2ccc(OC)cc2)O3)cc1,,,,IC50 (MDA-MB-231): 42.5 µM; IC50 (HepG2): 89.7 µM; IC50 (HT-29): 52 µM; IC50 [1]: 21.3 µM
COc1cccc(CCc2cc(O)c(O)c(OC)c2)c1,,,,IC50 [1]: 40.3 µM
COc1cccc(CCc2ccc(O)c(O)c2)c1O,,,,IC50 [7]: 126 µM; IC50 [8]: 434 µM

Structure (SMILES),Activity (PC-12 [2]) [%],Activity (PC-12 [3]) [%],Activity (PC-12 [4]) [%],further results
COc1cc(O)cc(CCc2cccc(O)c2)c1 [BATATASIN III],,,,Activity (PC-12 [6]): 8.2%; inhibition [9]: 36.3%; inhibition at 25 µM (RAW264.7): 21.6%
COc1cc(CCc2cc(OC)c(OC)c(OC)c2)ccc1O,,,,IC50 (NCI-H23): 158 µM; IC50 [1]: 21.8 µM
COc1cc([C@H](Cc2ccc(O)cc2)OC)cc(O)c1O,,,,IC50 [1]: 34.2 µM
COc1ccc(CCc2cc(O)c(OC)c3c2Oc2c(cc(O)c(OC)c2O)C3Cc2ccc(OC)cc2)cc1 (centres undefined),,,,IC50 (HL-60): 6.4 µM
COc1ccc(CC2C3=C(Cc4c2cc(O)c(O)c4OC)C(=O)c2cc(O)c4cc(O)ccc4c2C3=O)cc1 (centres undefined),,,,IC50 [1]: 19.8 µM
COc1cc(CC(O)c2cc(OC)c(O)c(OC)c2)ccc1O (centres undefined) [NOBILIN D],,,,IC50 [1]: 19.9 µM
COc1ccc(CCc2cc(OC)c(OC(=O)C(C)C)c(OC)c2)cc1OC,45.91,47.33,49.34,
Oc1cc(O)cc(CCc2ccc3c(c2)OCO3)c1,,,,inhibition [9]: 88%; inhibition at 25 µM (RAW264.7): 22.1%
Oc1cc(O)cc(CCc2ccc(F)cc2)c1,,,,IC50 [7]: 566 µM
COc1ccc(CCc2cc(OC)c(OC(=O)CCC(C)C)c(OC)c2)cc1OC,49.57,50.4,49.83,
CCCCC(C)Oc1c(OC)cc(CCc2ccc(OC)c(OC)c2)cc1OC (centres undefined),52.18,50.25,50.67,
COc1ccc(CC2c3cc(O)cc(CCc4ccc(O)cc4)c3Oc3c2cc(O)c(OC)c3O)cc1 (centres undefined),,,,IC50 (HL-60): 2.1 µM
CCOc1c(OC)cc(CCc2ccc(OC)c(OC)c2)cc1OC,46.15,50.92,53.84,
COc1cc(O)cc(CCc2ccc(O)c(O)c2)c1,,,,IC50 [7]: 176 µM; IC50 [8]: 680 µM
COc1cc(CCc2ccc(O)c(O)c2)cc(OC)c1O,,,,IC50 [7]: 17.8 µM
COc1cc(CCc2cc(O)c(OC)c(OC)c2)ccc1O,,,,IC50 (SGC-7901): 16.7 µM
COc1ccc(CCc2cc(OC)c(OC(=O)CCc3ccccc3)c(OC)c2)cc1OC,49.84,50.22,54,
COc1cc(C[C@H](O)c2cc(O)cc(O)c2)ccc1O,,,,inhibition at 25 µM (RAW264.7): 15%
Oc1ccc(CCc2cc(Cl)ccc2O)cc1O,,,,IC50 [7]: 21.8 µM

Structure (SMILES),Activity (PC-12 [2]) [%],Activity (PC-12 [3]) [%],Activity (PC-12 [4]) [%],further results
COc1cc(CCc2cccc(O)c2)cc(O)c1OC,,,,IC50 (K562): 15.7 µM; IC50 (SGC-7901): 7.8 µM; IC50 (Bel-7402): 11.7 µM
COc1ccc(CCc2cc(OC)c(O)c3c2C(Cc2ccc(O)cc2)c2cc(O)c(O)c(OC)c2O3)cc1 (centres undefined),,,,IC50 [1]: 32.4 µM
COc1cc(CCc2cc(O)c(O)c(OC)c2)ccc1O,,,,IC50 (NCI-H292): 96.6 µM
COc1cc(O)cc(CCc2ccc(O)cc2)c1,,,,IC50 (HL-60): 25.6 µM; Activity (PC-12 [6]): 12.08%
CCCCC(=O)Oc1c(OC)cc(CCc2ccc(OC)c(OC)c2)cc1OC,48.63,41.9,49.73,
CCCC(CCC)C(=O)Oc1c(OC)cc(CCc2ccc(OC)c(OC)c2)cc1OC,60.02,55.21,50.11,
CC(C)c1ccc(CCc2cc(O)cc(O)c2)cc1,,,,IC50 [7]: 513 µM
COc1cc(CCc2cccc(O)c2)cc(OC)c1O,,,,IC50 (HL-60): 4.48 µM; IC50 (SGC-7901): 12.8 µM
COc1cc2c(c(OC)c1O)-c1c(OC)cc(CCc3cccc(O)c3)cc1O[C@H]2[C@H](O)CO,,,,IC50 (K562): 10.3 µM; IC50 (Bel-7402): 10 µM
CCCC(=O)Oc1c(OC)cc(CCc2ccc(OC)c(OC)c2)cc1OC,49.37,50.12,54.89,
COc1ccc(CCc2cc(OC)c(OC)c(OC)c2)cc1OC,,,,IC50 (NCI-H23): 252 µM
Oc1ccc(CCc2ccc(O)c(O)c2)cc1O,,,,IC50 [7]: 534 µM
COC1=CC(O)(CCc2ccc(O)c(OC)c2)C=C(OC)C1=O,,,,inhibition [9]: 35.3%; inhibition at 25 µM (RAW264.7): 19.7%
CCCOc1c(OC)cc(CCc2ccc(OC)c(OC)c2)cc1OC,48.81,49.11,49.21,
CCC(=O)Oc1c(OC)cc(CCc2ccc(OC)c(OC)c2)cc1OC,44.4,44.21,45.31,
CCCCC(CC)Oc1c(OC)cc(CCc2ccc(OC)c(OC)c2)cc1OC (centres undefined),58.88,54.78,51.03,
COc1ccc(CCc2cc(OC)c(OC(=O)c3ccccn3)c(OC)c2)cc1OC,54.6,50.1,52.97,
COc1cc(CCc2cc(O)cc(O)c2)ccc1O [TRISTIN],,,,IC50 (HL-60): 29.1 µM; IC50 (THP-1): 13.5 µM; IC50 [10]: 21.2 µM; inhibition at 25 µM (RAW264.7): 27.2%
COc1cc(CCc2ccc(O)cc2)cc(OC)c1O,,,,IC50 (NCI-H292): 198 µM; Activity (PC-12 [6]): 6.94%
